# US11028095B2, “Spiro-lactam and bis-spiro-lactam NMDA receptor modulators and uses thereof” (Aptinyx Inc., priority 2016, dated 2021)
# Where two headings read alike, the source gives them in different places.
# How the values were obtained:
# Format in all cases: biochemical
# [1] = molecular target: T1, NMDAR2A expressing HEK cell membranes (Homo sapiens, UniProt Q05586+Q12879); test: NMDAR agonist assay, [3H]MK-801 binding, NMDAR2A; details: for EC50: [3H]MK-801 binding; for Emax: relative to 1 mM glycine
# T1 construct: expressed in transfected cells; host or cells: HEK cells (membrane extract)
# Method: (§1) (nonequilibrium conditions).
# (§2) The baseline value was determined from the best fit curve of the DPM values modeled using the GraphPad program and the log(agonist) vs. response(three parameters) algorithm was then subtracted from all points in the dataset.
# [2] = molecular target: T2, NMDAR2B expressing HEK cell membranes (Homo sapiens, UniProt Q05586+Q13224); test: NMDAR agonist assay, [3H]MK-801 binding, NMDAR2B; details: for EC50: [3H]MK-801 binding; for Emax: relative to 1 mM glycine
# T2 construct: expressed in transfected cells; host or cells: HEK cells (membrane extract)
# Method: as §1, §2
# [3] = molecular target: T3, NMDAR2B expressing HEK cell membranes (Homo sapiens, UniProt Q13224); test: NMDAR agonist assay, [3H]MK-801 binding, NMDAR2B; details: 50 μM glutamate; for EC50: [3H]MK-801 binding, read-out: NMDAR2B log EC50 (converted)
# T3 construct: expressed in transfected cells; host or cells: HEK cells (membrane extract)
# Method: as §1, §2
# [4] = 50 μM glutamate, read-out: NMDAR2A: log EC50 (converted)
# [5] = 50 μM glutamate, read-out: NMDAR2A: % maximal [3H]MK-801 binding relative to 1 mM glycine
# [6] = 50 μM glutamate, read-out: NMDAR2B log EC50 (converted)
# [7] = 50 μM glutamate, read-out: NMDAR2B: % maximal [3H]MK-801 binding relative to 1 mM glycine
# [8] = NMDAR2A: log EC50, 50 μM glutamate
# [9] = read-out: NMDAR2A: % maximal [3H]MK-801 binding relative to 1 mM glycine, 50 μM glutamate
# [10] = NMDAR2B: log EC50, 50 μM glutamate
# [11] = read-out: NMDAR2B: % maximal [3H]MK-801 binding relative to 1 mM glycine, 50 μM glutamate
# T3 sequence (Q13224 27-1484, other chains not shown): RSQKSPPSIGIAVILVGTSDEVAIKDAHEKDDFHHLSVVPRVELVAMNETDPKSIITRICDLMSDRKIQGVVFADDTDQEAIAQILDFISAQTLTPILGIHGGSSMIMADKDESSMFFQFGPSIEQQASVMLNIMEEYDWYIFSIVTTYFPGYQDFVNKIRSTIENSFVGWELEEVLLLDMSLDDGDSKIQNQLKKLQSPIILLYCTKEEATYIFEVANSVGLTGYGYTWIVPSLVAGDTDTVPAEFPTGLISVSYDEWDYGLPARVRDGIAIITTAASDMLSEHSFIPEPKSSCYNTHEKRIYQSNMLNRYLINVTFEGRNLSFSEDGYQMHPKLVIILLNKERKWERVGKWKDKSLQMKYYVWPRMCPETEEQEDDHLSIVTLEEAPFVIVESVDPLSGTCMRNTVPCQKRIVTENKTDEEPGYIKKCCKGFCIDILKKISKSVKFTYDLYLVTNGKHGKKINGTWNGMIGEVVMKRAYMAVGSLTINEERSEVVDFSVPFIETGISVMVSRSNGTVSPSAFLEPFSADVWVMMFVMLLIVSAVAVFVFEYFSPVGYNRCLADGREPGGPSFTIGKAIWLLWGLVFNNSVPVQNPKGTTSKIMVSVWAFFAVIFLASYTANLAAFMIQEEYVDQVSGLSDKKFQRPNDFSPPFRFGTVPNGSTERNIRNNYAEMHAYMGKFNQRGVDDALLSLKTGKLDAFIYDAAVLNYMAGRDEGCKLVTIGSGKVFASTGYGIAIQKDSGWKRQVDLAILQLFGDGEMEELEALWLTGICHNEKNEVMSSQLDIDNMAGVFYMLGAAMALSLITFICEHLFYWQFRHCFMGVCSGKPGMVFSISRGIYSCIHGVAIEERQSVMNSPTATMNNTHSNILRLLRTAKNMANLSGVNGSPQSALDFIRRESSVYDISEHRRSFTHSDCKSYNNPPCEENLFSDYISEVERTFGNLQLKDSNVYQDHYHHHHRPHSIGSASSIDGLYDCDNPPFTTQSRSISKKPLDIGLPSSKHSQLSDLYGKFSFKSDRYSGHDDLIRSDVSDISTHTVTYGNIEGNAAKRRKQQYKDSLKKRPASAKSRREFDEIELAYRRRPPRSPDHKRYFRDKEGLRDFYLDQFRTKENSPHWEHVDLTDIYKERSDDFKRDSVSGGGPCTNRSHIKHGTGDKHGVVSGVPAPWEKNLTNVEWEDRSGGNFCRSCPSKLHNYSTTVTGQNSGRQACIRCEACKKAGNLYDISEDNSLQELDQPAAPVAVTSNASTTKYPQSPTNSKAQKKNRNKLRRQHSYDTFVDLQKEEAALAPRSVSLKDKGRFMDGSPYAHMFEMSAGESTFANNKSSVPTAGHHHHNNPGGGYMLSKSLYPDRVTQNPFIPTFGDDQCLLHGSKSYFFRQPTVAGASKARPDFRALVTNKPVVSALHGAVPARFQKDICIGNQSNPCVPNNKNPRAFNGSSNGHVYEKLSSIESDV
# T2 sequence (Q13224 27-1484, other chains not shown): as above
# T1 sequence (Q12879 23-1464, other chains not shown): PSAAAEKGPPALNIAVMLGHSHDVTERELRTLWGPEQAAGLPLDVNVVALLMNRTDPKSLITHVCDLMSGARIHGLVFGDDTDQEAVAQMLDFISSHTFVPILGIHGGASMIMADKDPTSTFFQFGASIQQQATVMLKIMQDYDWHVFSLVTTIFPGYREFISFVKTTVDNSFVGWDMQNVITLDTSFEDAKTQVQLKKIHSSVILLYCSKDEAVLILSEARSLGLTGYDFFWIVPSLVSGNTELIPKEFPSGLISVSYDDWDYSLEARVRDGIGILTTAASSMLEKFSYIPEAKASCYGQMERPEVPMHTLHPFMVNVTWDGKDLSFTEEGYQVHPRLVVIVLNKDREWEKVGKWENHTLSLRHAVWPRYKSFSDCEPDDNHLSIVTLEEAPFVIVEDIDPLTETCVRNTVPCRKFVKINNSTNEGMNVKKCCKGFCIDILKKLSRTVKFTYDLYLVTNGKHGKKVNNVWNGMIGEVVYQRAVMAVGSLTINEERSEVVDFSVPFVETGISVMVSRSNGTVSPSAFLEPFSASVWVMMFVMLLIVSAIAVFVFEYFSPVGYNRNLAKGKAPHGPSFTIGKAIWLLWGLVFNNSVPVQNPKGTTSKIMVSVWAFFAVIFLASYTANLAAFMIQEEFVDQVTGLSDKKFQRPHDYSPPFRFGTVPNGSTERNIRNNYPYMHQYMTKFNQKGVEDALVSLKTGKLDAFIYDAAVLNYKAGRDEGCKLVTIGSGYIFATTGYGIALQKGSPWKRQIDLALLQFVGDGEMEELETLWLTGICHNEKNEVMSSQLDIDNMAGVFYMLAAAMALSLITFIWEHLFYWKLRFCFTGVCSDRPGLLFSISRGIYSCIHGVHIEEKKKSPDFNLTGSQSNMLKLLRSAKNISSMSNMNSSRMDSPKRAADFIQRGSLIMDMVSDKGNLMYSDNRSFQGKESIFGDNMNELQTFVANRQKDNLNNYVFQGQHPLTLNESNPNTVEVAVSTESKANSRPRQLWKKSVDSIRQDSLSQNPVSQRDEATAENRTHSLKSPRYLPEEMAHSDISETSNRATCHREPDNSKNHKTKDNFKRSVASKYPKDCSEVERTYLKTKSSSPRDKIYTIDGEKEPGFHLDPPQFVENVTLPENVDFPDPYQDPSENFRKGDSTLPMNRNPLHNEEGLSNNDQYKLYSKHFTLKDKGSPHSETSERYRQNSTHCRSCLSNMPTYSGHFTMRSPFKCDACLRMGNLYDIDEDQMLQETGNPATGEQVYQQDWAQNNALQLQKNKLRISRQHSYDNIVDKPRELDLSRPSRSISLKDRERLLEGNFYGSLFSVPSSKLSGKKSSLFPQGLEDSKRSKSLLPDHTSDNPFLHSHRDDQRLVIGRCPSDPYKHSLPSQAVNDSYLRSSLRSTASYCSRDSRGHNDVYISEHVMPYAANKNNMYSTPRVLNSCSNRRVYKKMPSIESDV
Structure (SMILES),"EC50 [1, 4] [nM]","Emax [1, 5] [%]","EC50 [2, 6] [nM]","Emax [2, 7] [%]",also measured
COc1ccc(CN2CC3(CC(N[C@H](C(N)=O)[C@@H](C)O)CN3)C2=O)cc1 (stereo partly shown) [CD],< 1,–,–,–,–
"CC(O)C(NCC1CCC2(CNC2=O)N1)C(N)=O (single isomer, unassigned) [CM]",< 1,< 100,< 1,< 100,–
"O=C1NCC12CCC1(CNC1=O)N2Cc1ccc(F)cc1 (single isomer, unassigned) [DJ, 5-(4-fluorobenzyl)-2,5,8-triazadispiro[3.1.36.24]undecane-1,7-dione]",< 1,–,–,–,EC50 [3]: < 1 nM
"COc1ccc(CN2C[C@@]3(C[C@H](C(N)=O)CN3CC(C)C)C2=O)cc1 [CI, (4S,7S)-5-isobutyl-2-(4-methoxybenzyl)-1-oxo-2,5-diazaspiro[3.4]octane-7-carboxamide]",–,< 100,< 1,< 100,–
"NC(=O)C1CCC2(CNC2=O)N1 (single isomer, unassigned) [DB, 1-oxo-2,5-diazaspiro[3.4]octane-6-carboxamide]",–,–,–,–,EC50 [3]: < 1 nM
"CC(C)CN1C2(CCC13CNC3=O)CNC2=O (stereo not shown) [AE, 5-isobutyl-2,5,8-triazadispiro[3.1.36.24]undecane-1,7-dione]",–,–,–,–,"EC50 [1, 8]: > 100 nM; Emax [1, 9]: 0%; EC50 [2, 10]: > 100 nM; Emax [2, 11]: 0%"
C[C@@H](O)[C@@H](C(=O)N(C)C)N(C)CC1CCC2(CN(OCc3ccccc3)C2=O)N1C(=O)OC(C)(C)C (stereo partly shown) [BW],< 1,< 100,< 1,> 100,–
"NC(=O)C1CCC2(CNC2=O)N1Cc1ccc(F)cc1 (single isomer, unassigned) [DG, 5-(4-fluorobenzyl)-1-oxo-2,5-diazaspiro[3.4]octane-6-carboxamide]",< 1,< 100,–,< 100,–
CNC(=O)[C@@H](NCC1CCC2(CNC2=O)N1C(=O)OC(C)(C)C)[C@@H](C)O (stereo partly shown) [BP],> 100,0,> 100,0,–
C[C@@H](O)[C@H](NCC1CCC2(CN(OCc3ccccc3)C2=O)N1C(=O)OC(C)(C)C)C(N)=O (stereo partly shown) [BI],> 100,0,> 100,0,–
"CNC(=O)C(NCC1CCC2(CN(OCc3ccccc3)C2=O)N1)C(C)O (single isomer, unassigned) [CO]",< 1,< 100,< 1,< 100,–
"O=C1NCC12CCC1(CNC1=O)N2Cc1ccc(F)cc1 (single isomer, unassigned) [DI, 5-(4-fluorobenzyl)-2,5,8-triazadispiro[3.1.36.24]undecane-1,7-dione]",–,< 100,< 1,< 100,–
"COc1ccc(CN2CC3(CC(N[C@H](C(=O)O)[C@@H](C)O)CN3C(=O)OC(C)(C)C)C2=O)cc1 (single isomer, unassigned) [CE, (5-(tert-butoxycarbonyl)-2-(4-methoxybenzyl)-1-oxo-2,5-diazaspiro[3.4]octan-7-yl)-L-threonine]",> 100,0,< 1,> 100,–
C[C@@H](O)[C@H](NCC1CCC2(CNC2=O)N1C(=O)OC(C)(C)C)C(N)=O (stereo partly shown) [BK],> 100,0,–,< 100,–
"CN1C2(CCC13CNC3=O)CNC2=O (stereo not shown) [AB-3, 5-methyl-2,5,8-triazadispiro[3.1.36.24]undecane-1,7-dione]",–,–,–,–,"EC50 [1, 8]: > 100 nM; Emax [1, 9]: 0%; EC50 [2, 10]: > 100 nM; Emax [2, 11]: 0%"
"COc1ccc(CN2CC3(CC(N[C@H](C(=O)O)[C@@H](C)O)CN3C(=O)OC(C)(C)C)C2=O)cc1 (stereo partly drawn) [CF, (5-(tert-butoxycarbonyl)-2-(4-methoxybenzyl)-1-oxo-2,5-diazaspiro[3.4]octan-7-yl)-L-threonine]",> 100,0,< 1,< 100,–

# More lines, main results first:
"EC50 [1, 4] [nM]","Emax [1, 5] [%]","EC50 [2, 6] [nM]","Emax [2, 7] [%]",Structure (SMILES),also measured
< 1,< 100,> 100,–,"CC(C)C(=O)N1C2(CCC13CNC3=O)CNC2=O (single isomer, unassigned) [AG, 5-isobutyryl-2,5,8-triazadispiro[3.1.36.24]undecane-1,7-dione]",NMDAR2B: % maximal [3H]MK-801 binding relative to 1 mM glycine ([3]; relative to 1 mM glycine): − (−=0)
> 100,0,> 100,0,"CNC(=O)[C@@H](NCC1CCC2(CN(OCc3ccccc3)C2=O)N1C(=O)OC(C)(C)C)[C@@H](C)O (single isomer, unassigned) [BM]",–
< 1,< 100,< 1,< 100,"NC(=O)C1CCC2(CNC2=O)N1Cc1ccccc1 (single isomer, unassigned) [DE, 5-benzyl-1-oxo-2,5-diazaspiro[3.4]octane-6-carboxamide]",–
–,< 100,–,< 100,COc1ccc(CN2CC3(C[C@H](C(N)=O)CN3CC(C)C)C2=O)cc1 (stereo partly shown) [CJ],–
–,< 100,> 100,0,COc1ccc(CN2CC3(CC(N[C@H](C(N)=O)[C@@H](C)O)CN3)C2=O)cc1 (stereo partly shown) [CC],–
> 100,0,> 100,0,"COc1ccc(CN2CC3(CC(N[C@H](C(N)=O)[C@@H](C)O)CN3C(=O)OC(C)(C)C)C2=O)cc1 (stereo partly drawn) [CA, tert-butyl 7-(((2S,3R)-1-amino-3-hydroxy-1-oxobutan-2-yl)amino)-2-(4-methoxybenzyl)-1-oxo-2,5-diazaspiro[3.4]octane-5-carboxylate]",–
< 1,< 100,< 1,< 100,"NC(=O)C1CCC2(CN(OCc3ccccc3)C2=O)N1 (single isomer, unassigned) [CY, 2-(benzyloxy)-1-oxo-2,5-diazaspiro[3.4]octane-6-carboxamide]",–
< 1,< 100,< 1,< 100,"CNC(=O)C(C(C)O)N(C)CC1CCC2(CN(OCc3ccccc3)C2=O)N1 (single isomer, unassigned) [CW]",–
–,–,< 1,–,C[C@@H](O)[C@H](NCC1CCC2(CNC2=O)N1C(=O)OC(C)(C)C)C(N)=O (stereo partly shown) [BL],–
< 1,< 100,< 1,< 100,"NC(=O)C1CCC2(CNC2=O)N1 (single isomer, unassigned) [DA, 1-oxo-2,5-diazaspiro[3.4]octane-6-carboxamide]",–
–,< 100,< 1,> 100,"C[C@@H](O)[C@H](NC(=O)C1CCC2(CNC2=O)N1C)C(N)=O (single isomer, unassigned) [BC]",–
–,< 100,> 100,0,"CC(C)C(=O)N1C[C@@H](C(N)=O)C[C@]12CNC2=O [AT, (4R,7S)-5-isobutyryl-1-oxo-2,5-diazaspiro[3.4]octane-7-carboxamide]",–
< 1,< 100,< 1,< 100,"C[C@@H](O)[C@@H](C(N)=O)N(C)CC1CCC2(CN(OCc3ccccc3)C2=O)N1C(=O)OC(C)(C)C (stereo partly drawn) [BU, tert-butyl 6-((((2S,3R)-1-amino-3-hydroxy-1-oxobutan-2-yl)(methyl)amino)methyl)-2-(benzyloxy)-1-oxo-2,5-diazaspiro[3.4]octane-5-carboxylate]",–
< 1,< 100,< 1,> 100,"CC(C)CN1C(C(N)=O)CCC12CNC2=O (single isomer, unassigned) [DC, 5-isobutyl-1-oxo-2,5-diazaspiro[3.4]octane-6-carboxamide]",–
